Source: patent publication US20010019716A1 (priority 1996, published 2001)

Experiments:
HeLa cells [1] = assay type: cell-based
HeLa cells [2] = assay type: cell-based; remark: listed apart in the source
[3] = system: Mycobacterium tuberculosis; details: in vivo; cited from earlier work

In the case of “TKRRITPKDVIDVRSVTTEINT [Inv3]”, the “concentration of peptide at which internalization of the beads was achieved (as low as)” value (HeLa cells [1]) is reported as 25 nM, the “concentration sufficient to permit uptake of the spheres by Hela cells” value (HeLa cells [1]) is reported as “nanomolar concentration” and the “entry of coated beads into HeLa cells compared with whole Mcep (SEQ. ID. No. 4)” value (HeLa cells [1]) is reported as “as efficiently as the whole Mcep”. The “uptake of coated 0.3 μm latex microspheres, transmission electron microscopy” value (HeLa cells [1]) was “uptake” and the “blocking of uptake of Mcep-coated beads” value (HeLa cells [2]) was “competitively blocked”.

In the case of `NNC(=O)c1ccncc1` [isoniazid], the “effective in preventing the disease” value [3] is given as “about 90%”.
